Patent US11136283B2, “Recovering and purifying resveratrol produced by microbial fermentation” (EVOLVA SA, priority 2017, dated 2021)
“And” between values parts separate entries of the source, which are not always exact repeats. Equal entries are not always repeated.

Assay: Stability of resveratrol in ultrafiltration filtrates concentrated by reverse osmosis and held at pH 11
Format: physicochemical
Conditions: held at pH 11 for 3 to 7 days at 5° C. to 8° C., at production vs 7 days after
Experimental: It is advantageous for process intermediate materials to have a high degree of stability, so that they can be processed over time without the need for immediate processing on equipment with high capacity. The various filtrates from the ultrafiltration tests were concentrated by reverse osmosis and held at pH 11 for 3 to 7 days at 5° C. to 8° C. to evaluate their stability. The product decomposition is a comparison between the composition at the time of production and that measured 7 days after production. The stability improved monotonically as the molecular weight cutoff of the ultrafilter was decreased from 100 kDa to 25 kDa to 5 kDa. 11%, 7%, and 5% of the resveratrol was decomposed in the respective tests.

## Oc1ccc(/C=C/c2cc(O)cc(O)c2)cc1 [resveratrol, 3,5,4′-trihydroxy-trans-stilbene]
Filtrate from GR40PP 100 kDa ultrafilter, broth EFSC4687
  Product Decomposition: 11.5%
Filtrate from GR40PP 100 kDa ultrafilter, broth EFSC 21811
  Product Decomposition: 11% and 10.7%
Filtrate from GR60PP 25 kDa ultrafilter
  Product Decomposition: 7%
Filtrate from GR90PP 5 kDa ultrafilter
  Product Decomposition: 5%
